Measurements taken from US20250325468A1, “PEPTIDE INHIBITING FORMATION OF SNARE COMPLEX AND USE THEREOF” (MEDYTOX INC., priority 2020, published 2025).
Values joined by “and” are separate entries in the source; they are usually repeats but may differ in a detail not shown here. Equal values may be shown once. Where no end group is shown, it is not given here.

Legend:
[1] = tested on: artificial skin (Neoderm-ED); test: Skin irritation test on artificial skin (MTT); assay type: cell-based; conditions: FIG. 4; 20 μl of 100 μg/ml peptide; 50% or greater viability = no irritation
Experimental: (§1) 1×PBS and 5% SDS were evenly applied to artificial skin (Neoderm-ED) purchased from Tegoscience (South Korea) to prepare a negative control and a positive control, respectively. An experimental group was evenly coated with 20 μl of 100 μg/ml C2-P4 peptide. After allowing the samples to react at room temperature for 15 minutes, the resultants were each transferred to the wells of a 12-well culture plate and cultured in an incubator of 37° C. and 5% CO2 for 15 minutes. Once the reaction was completed, the artificial skin was washed twice with PBS and transferred to the wells of a new 12-well culture plate and cultured for 42 hours. Once the culture was completed, 2 ml of 0.3 mg/ml MTT solution was added, and the cells were cultured for 3 hours. The sample in each well of the plate was decolorized by adding 0.04 N HCl-isopropanol, and placed in the Spectra MAX i3, and absorbance of the sample in each well was measured at 580 nm.
(§2) FIG. 4 is a graph showing the results of measuring effect of C2-P4 on skin irritation. […] Here, when the cell viability of a sample was 50% or greater, the sample was determined to have no irritation.

[2] = Skin irritation test on artificial skin (MTT); assay type: cell-based; conditions: human, artificial skin (Neoderm-ED, Tegoscience); FIG. 4; 20 μl of 100 μg/ml peptide; 50% or greater = no irritation; read-out: cell viability
Experimental: as §1, §2

B16-F10 cells = test: Raw material toxicity test: MTT analysis; assay type: cell-based, mice; conditions: FIG. 3; 12.5 μM, 25 μM and 50 μM, 48 hours
Experimental: B16-F10 cells purchased from the Korean Cell Line Bank were inoculated into 100 μL of a DMEM medium containing 10% FBS at a concentration of 1×10^4 cells/well in a 96-well plate and cultured for 48 hours. B16-F10 cells are a murine melanoma cell line derived from mice. These cells are adherent and have an epithelial morphology. Thereafter, the C2-P4 peptide was diluted in a DMEM culture medium at concentrations of 12.5 μM, 25 μM, and 50 μM to replace the medium, and the cells were cultured for 48 hours. After centrifuging the plate at 1,000 rpm for 10 minutes, the culture medium solution was removed. Each well was washed twice with PBS, and a 0.5 mg/ml MTT solution diluted in a DMEM medium was added thereto. The cells were cultured in an incubator of 37° C. and 5% CO2 for 2 hours. After centrifuging the plate at 1,000 rpm for 10 minutes, the MTT solution was removed. Each well was washed twice with PBS, and 150 μL of DMSO was added to dissolve the produced formazan. The plate was placed in a spectrometer (Spectra MAX i3), and absorbance of the sample in each well was measured at 590 nm.

MITF gene = MITF gene activity by real-time PCR; assay type: cell-based, mice; conditions: Table 2; three replicates; C2-P4 10 μM, α-MSH 50 nM, 48 hours
Experimental: B16-F10 cells purchased from the Korean Cell Line Bank were inoculated into 3 mL of a DMEM medium containing 10% FBS at a concentration of 1×10^5 cells/well in a 6-well plate and cultured in an incubator of 37° C. and 5% CO2 for 24 hours to form a cell monolayer. The medium in a negative control was replaced with a DMEM medium, and the medium in peptide-treated experimental groups and α-MSH experimental groups was replaced with a medium containing 10 μM of each of the peptides and 50 nM of α-MSH, respectively, and then the cells were cultured for 48 hours. Each of the experimental groups was washed twice with PBS, the cells were obtained with trypsin-EDTA and centrifuged at 1500 rpm for 5 minutes to separate the cells. RNA was extracted from the separated cells using Trizol, and each 1,000 ng of cDNA was synthesized using reverse transcriptase. Using 100 ng of each of the synthesized cDNAs, the expression levels of GAPDH and […] were confirmed using real-time PCR. The primers used for the real-time PCR were SEQ ID NOs: 9 and 10. Alternatively, the polynucleotide sets of SEQ ID NOs: 11 and 12 were used.

Substance | skin irritation [1] | viability at 0.5 h, 100 µg/mL [2] [%] | cell viability compared to the negative control (scrambled peptide) (B16-F10 cells) | cytotoxicity (MTT assay) (B16-F10 cells) | MITF (real-time PCR value) (MITF gene)
RRWRRWNRFNRRRCRRRLQQTQAQVDEVVDIM [C2-P4] | no irritation | ~85 | similar | no cytotoxicity | 
α-MSH |  |  |  |  | 30.05 and 29.98 and 30.17
